US20230255943A1, “MMP-9 AND MMP-12 INHIBITION FOR TREATING SPINAL CORD INJURY OR RELATED INJURY TO NEUROLOGICAL TISSUE” (The University of Birmingham, priority 2020, published 2023)

Target: T1, MMP-12 (Mus musculus, UniProt P34960)
T1 construct: from tissue; host or cells: mouse spinal cord lesion site homogenate, serum and CSF
Test: MMP-12 enzyme activity after SCI in mice (SensoLyte 520 fluorimetric assay)
Assay type: in vivo
Details: for suppression of MMP-12 activity in CSF / suppression of MMP-12 activity in serum / suppression of MMP-12 activity in spinal cord tissues: DC injury; for suppression of MMP-12 activity in spinal cord tissues: lowest most effective dose
Procedure: For oral delivery of AZD1236, n=6 adult male C57BL6 mice/group (Charles River, Margate, UK) were randomly allocated to either: (1), Sham (control; partial laminectomy but no DC crush injury); (2), DC crush injury+vehicle (partial laminectomy followed by DC crush injury and injection of vehicle); (3), DC crush injury+100 mg/kg AZD1236; (4), DC crush injury+200 mg/kg AZD1236; and (5), DC crush injury+300 mg/kg AZD1236. For intrathecal (it) delivery of AZD1236, adult male C57BL6 mice (25-30 g) (Charles River, Margate, UK) were randomly allocated to either: (1), Sham (control; partial laminectomy but no DC crush injury); (2), DC crush injury+vehicle (partial laminectomy followed by DC crush injury and injection of vehicle); (3), DC crush injury+2.5 mg/kg AZD1236; (4), DC crush injury+5 mg/kg AZD1236; and (5), DC crush injury+10 mg/kg AZD1236. For intrathecal delivery an indwelling atlanto-occipital intrathecal catheter was inserted into the intrathecal space, as described previously (F. A. Oladosu, B. P. Ciszek, S. C. O'Buckley, A. G. Nackley, Novel intrathecal and subcutaneous catheter delivery systems in the mouse. J Neurosci Methods 264, 119-128 (2016)). Briefly, with mice in the sternal recumbency a small incision was made at the nape of the neck followed by detachment of the muscles on either side of the external occipital crest to expose the A-O membrane. The membrane was incised and a 6 cm Alzet mouse intrathecal catheter (Alzet, Cupertino, Calif., USA) and polyurethane segments were gently guided 2.5 cm into the intrathecal space. The catheter was secured using 4-0 silk sutures (Oasis Medical, IL) and the exposed end of the catheter was sealed off with a stainless-steel plug and affixed to the upper back. Animals were injected immediately with vehicle or AZD1236 followed by a 10 μl PBS catheter flush. Injections were repeated every twice daily for the first 3 days after injury and drugs and vehicle reagents were delivered over 1 min time period using a Hamilton microlitre syringe (Hamilton Co, USA). Where specified intact animals with no surgical procedures were also used. All lesions were administered under 5% isofluorane induced inhalation anaesthesia, with 1.51/min O2. Pre- and post-injury analgesia was also provided.
DC crush injury was administered bilaterally at the T8 vertebral level as described previously (S. Surey, M. Berry, A. Logan, R. Bicknell, Z. Ahmed, Differential cavitation, angiogenesis and wound-healing responses in injured mouse and rat spinal cords. Neuroscience 275, 62-80 (2014); M. L. Read, S. Mir, R. Spice, R. J. Seabright, E. L. Suggate, Z. Ahmed, M. Berry, A. Logan, Profiling RNA interference (RNAi)-mediated toxicity in neural cultures for effective short interfering RNA design. J Gene Med 11, 523-534 (2009)). Briefly, calibrated watchmaker's forceps were separated by 0.5 mm and inserted through the dorsal cord meninges to a depth of 0.45 mm in mice and separated by 1 mm and inserted through the dorsal cord meninges to a depth of 1.0 mm in rats, and the DC were crushed for 3 seconds. AZD1236 or vehicle was administered twice daily by oral gavage or intrathecally, either immediately for the first 3 days or 24 hours after injury and treating twice daily until day 4 (i.e. 3 days of AZD1236 dosing). All experiments were performed with n=6 mice/group and repeated on at least 2-3 independent occasions (total=12-18 animals/group/test).
CC SCI was administered at the T7-T8 vertebral level after exposure of T6-T9 by laminectomy. […]

T1 sequence (P34960 110-473): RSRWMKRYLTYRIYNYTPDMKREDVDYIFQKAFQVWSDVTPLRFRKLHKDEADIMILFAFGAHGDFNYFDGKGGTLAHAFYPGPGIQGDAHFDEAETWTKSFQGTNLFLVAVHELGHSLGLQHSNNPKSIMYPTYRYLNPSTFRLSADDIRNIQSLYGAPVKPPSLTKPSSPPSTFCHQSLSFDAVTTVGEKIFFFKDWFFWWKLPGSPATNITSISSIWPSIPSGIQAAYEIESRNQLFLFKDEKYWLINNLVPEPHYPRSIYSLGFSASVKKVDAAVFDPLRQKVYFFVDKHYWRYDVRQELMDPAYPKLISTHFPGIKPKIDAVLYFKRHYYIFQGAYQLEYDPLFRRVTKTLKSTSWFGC

**Q.** For `C[C@]1(CS(=O)(=O)N2CC=C(C#Cc3cnc(C4CC4)nc3)CC2)NC(=O)NC1=O` [AZD1236], which “suppression of MMP-12 activity in CSF” value (intrathecal delivery) is on record?
**A.** 90±1%

**Q.** And the “suppression of MMP-12 activity in serum” value (intrathecal delivery)?
**A.** 71±1%

**Q.** And the “suppression of MMP-12 activity in spinal cord tissues” value (intrathecal)?
**A.** 86±4%

**Q.** What about the “suppression of MMP-12 activity in CSF” value (oral delivery, 200 mg/kg) of the same compound?
**A.** 69±3%

**Q.** And the “suppression of MMP-12 activity in serum” value (oral delivery, 200 mg/kg)?
**A.** 90±3%

**Q.** And the “suppression of MMP-12 activity in spinal cord tissues” value (oral)?
**A.** 85±3%

**Q.** What about the “time for MMP-12 activity to return to DC+Vehicle injury levels after withdrawal” value (injury site, oral dosing withdrawn after 3 d) of the same compound?
**A.** 5 days

**Q.** And the “MMP-12 activity, 24-h delayed treatment” value (optimal doses, 24 h delay vs immediate)?
**A.** equally as effective as immediate delivery
